Key:
[1] = target: PHD2181-417 (Homo sapiens (Human), UniProt Q9GZT9); assay: PHD enzymatic assay ([14C]-succinic acid production); type: biochemical; conditions: purified PHD2181-417, HIF-1α peptide substrate, 30 min pre-incubation; average of results
Experimental: Expression and Purification of PHD2181-417
The human PHD2 expression construct containing amino acids 181-417 of GenBank Accession ID NM_022051 was cloned into a pBAD vector (Invitrogen), incorporating both an N-terminal histidine tag and a Smt3-tag, both of which are cleaved by Ulp1. Protein production was achieved by expression in BL21 cells grown in Terrific Broth containing 100 μg/ml ampicillin. Cell cultures were inoculated at 37° C. and grown to an OD600 of 0.8. Cultures were induced with 0.1% arabinose and grown overnight at 20° C. with continuous shaking at 225 rpm. Cells were then harvested by centrifugation and stored at −80° C. Cell pellets were suspended in Buffer A (50 mM Tris-HCl pH 7.2, 100 mM NaCl, 100 mM L-arginine, 1 mM TCEP, 0.05% (w/v) NP-40, 50 mM imidazole) followed by the addition of lysozyme and benzonase. Cells were lysed by sonication and the lysate was cleared by centrifugation (15,000 rpm, 90 min, 4° C.). The protein was purified by nickel affinity chromatography using a HisTrap Crude FF column (GE Healthcare). Samples were eluted in Buffer A with a 50-200 mM imidazole gradient. Cleavage of the Smt tag with Ulp1 protease was achieved via overnight incubation with dialyzing against Buffer A. The PHD2181-417 sample was then passed over a second HisTrap Crude FF column (GE Healthcare) to remove uncleaved protein. The flow-through was then dialyzed into 50 mM MES pH 6.0, 1 mM TCEP, 5 mM NaCl for ion exchange chromatography on a HiTrap SP Cation Exchange column (GE Healthcare). The PHD2181-417 protein was eluted with a 0-0.2 M NaCl gradient. Fractions were pooled for further purification by size exclusion chromatography over a Superdex 75 Size Exclusion Column (GE Healthcare). Final protein was concentrated to 4 mg/ml and dialyzed in 10 mM PIPES pH 7.0, 100 mM NaCl, 0.5 mM TCEP.
(10 μM, California Peptide Research Inc., Napa, Calif.), and [5-^14C]-2-oxoglutaric acid (50 mCi/mmol, Moravek Chemicals, Brea, Calif.) in reaction buffer (40 mM Tris-HCl, pH 7.5, 0.4 mg/ml catalase, 0.5 mM DTT, 1 mM ascorbate) for 10 minutes. Compounds were pre-incubated for 30 min before starting the reaction (all test compounds were dissolved at 10 mM in 100% DMSO (w/v) and were tested with final compound concentrations at 100 μM in 1% DMSO (w/v)). The reaction was stopped by addition of 50 μl of 70 mM H3PO4 and 50 μl of 500 mM NaH2PO4, pH 3.2. Detection of [^14C]-succinic acid was achieved by separating from [5-^14C]-2-oxoglutaric acid by incubating the reaction mixture with 100 μl of 0.16 M DNP prepared in 30% perchloric acid. Next, 50 μl of unlabeled 20 mM 2-oxoglutaric acid/20 mM succinic acid, serving as carrier for the radioactivity, was added to the mixture, and was allowed to proceed for 30 minutes at room temperature. The reaction was then incubated with 50 μl of 1 M 2-oxoglutaric acid for 30 additional minutes at room temperature to precipitate the excess DNP. The reaction was then centrifuged at 2800×g for 10 minutes at room temperature to separate [^14C]-succinic acid in the supernatant from the precipitated [^14C]-dinitrophenylhydrazone. Fractions of the supernatant (400 μI) were counted using a beta counter (Beckman Coulter, Fullerton, Calif.). Inhibition of PHD2181-417 activity was measured as a decrease in succinic acid production. The IC50 values were estimated by fitting the data to a three-parameter logistic function using GraphPad Prism, version 4.02 (Graph Pad Software, San Diego, Calif.).

[2] = tested on: Erythropoietin secretion, Hep-3B cells; assay: Cellular assay: EPO secretion in Hep-3B cells; type: cell-based; conditions: Homo sapiens, Hep3B, 100 μM compound, 24 hours, percent of EPO secretion relative to assay control compound 7-[(4-Chloro-phenyl)-(5-methyl-isoxazol-3-ylamino)-methyl]-quinolin-8-ol, read-out: Cellular % EPO Stimulation
Experimental: Hep-3B cells (ATCC, Manassas, Va.) were plated in 96-well plates at 20,000 cells per well in 100 μl of DMEM containing 10% fetal bovine serum, 1% non-essential amino acids, 50 IU/mL of penicillin and 50 μg/mL of streptomycin (all cell culture reagents from Invitrogen, Carlsbad, Calif.). Twenty-four hours after plating, compounds were added and incubated for an additional 24 hours. All compounds were tested with final compound concentrations at 100 μM. Fifty microliters of the supernatant was then transferred to a human Hypoxia assay kit (Meso-Scale Discovery, Gaithersburg, Md.). Erythropoietin in the supernatant was detected according to the manufacturer's instructions as follows. EPO detection plates were blocked with 3% BSA in PBS overnight and 50 μl of the supernatant was incubated at room temperature in an orbital shaker for 2 h. Twenty-five microliters of 0.5 μg/ml anti-EPO detection antibody was added for 2 hours at room temperature in an orbital shaker. After 3 washes in PBS, 150 μl of 1× read buffer is added and the plate is then read on the MSD SECTOR instrument. Data was analyzed by determining the percent of EPO secretion in the presence of 100 μM compound relative to an assay control compound, 7-[(4-Chloro-phenyl)-(5-methyl-isoxazol-3-ylamino)-methyl]-quinolin-8-ol.

PHD2181-417, sequence (Q9GZT9 181-417): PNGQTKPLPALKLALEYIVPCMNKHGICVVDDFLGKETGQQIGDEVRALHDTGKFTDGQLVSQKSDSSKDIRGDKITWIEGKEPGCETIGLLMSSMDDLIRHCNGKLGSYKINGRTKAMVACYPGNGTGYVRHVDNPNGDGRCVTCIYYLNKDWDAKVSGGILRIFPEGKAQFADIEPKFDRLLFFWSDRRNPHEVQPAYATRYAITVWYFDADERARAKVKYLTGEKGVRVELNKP

SMILES	Enzyme pIC50 [1]	activation at 100 µM [2]
CCN(CC)c1nc(-n2cc(C(=O)O)cn2)nc2ccc(Oc3ccc(Cl)cc3)cc12 [Example 60, 1-(6-(4-Chlorophenoxy)-4-(diethylamino)quinazolin-2-yl)-1H-pyrazole-4-carboxylic acid]	7.3	22%
O=C(O)c1cnn(-c2nc(N3CCCC3)c3cc(Oc4ccc(Cl)cc4)ccc3n2)c1 [Example 61, 1-(6-(4-Chlorophenoxy)-4-(pyrrolidin-1-yl)quinazolin-2-yl)-1H-pyrazole-4-carboxylic acid]	7.3	96%
O=C(O)c1cnn(-c2nc(NC3CC3)c3cc(Oc4ccc(Cl)cc4)ccc3n2)c1 [Example 62, 1-(6-(4-Chlorophenoxy)-4-(cyclopropylamino)quinazolin-2-yl)-1H-pyrazole-4-carboxylic acid]	7.0	32%
O=C(O)c1cnn(-c2nc(N3CCCCC3)c3cc(Oc4ccc(Cl)cc4)ccc3n2)c1 [Example 63, 1-(6-(4-Chlorophenoxy)-4-(piperidin-1-yl)quinazolin-2-yl)-1H-pyrazole-4-carboxylic acid]	7.6	39%
N#CC1CCN(c2nc(-n3cc(C(=O)O)cn3)nc3ccc(Oc4ccc(Cl)cc4)cc23)CC1 [Example 65, 1-(6-(4-Chlorophenoxy)-4-(4-cyanopiperidin-1-yl)quinazolin-2-yl)-1H-pyrazole-4-carboxylic acid]	7.4	77%
O=C(O)c1cnn(-c2nc(NC3CCOCC3)c3cc(Oc4ccc(Cl)cc4)ccc3n2)c1 [Example 68, 1-(6-(4-Chlorophenoxy)-4-((tetrahydro-2H-pyran-4-yl)amino)quinazolin-2-yl)-1H-pyrazole-4-carboxylic acid]	6.9	40%
O=C(O)c1cnn(-c2nc(Nc3ccccc3)c3cc(Oc4ccc(Cl)cc4)ccc3n2)c1 [Example 69, 1-(6-(4-Chlorophenoxy)-4-(phenylamino)quinazolin-2-yl)-1H-pyrazole-4-carboxylic acid]	7.7	23%
CC(=O)NC1CCN(c2nc(-n3cc(C(=O)O)cn3)nc3ccc(Oc4ccc(Cl)cc4)cc23)CC1 [Example 70, 1-(4-(4-Acetamidopiperidin-1-yl)-6-(4-chlorophenoxy)quinazolin-2-yl)-1H-pyrazole-4-carboxylic acid]	7.1	16%
CN1CCCN(c2nc(-n3cc(C(=O)O)cn3)nc3ccc(Oc4ccc(Cl)cc4)cc23)CC1 [Example 71, 1-(6-(4-Chlorophenoxy)-4-(4-methyl-1,4-diazepan-1-yl)quinazolin-2-yl)-1H-pyrazole-4-carboxylic acid]	6.7	17%
O=C(O)c1cnn(-c2nc(N3CCCC3)c3cc(Oc4ccccc4)ccc3n2)c1 [Example 73, 1-(6-Phenoxy-4-(pyrrolidin-1-yl)quinazolin-2-yl)-1H-pyrazole-4-carboxylic acid]	7.2	36%
O=C(O)c1cnn(-c2nc(NC3CC3)c3cc(Oc4ccccc4)ccc3n2)c1 [Example 75, 1-(4-(Cyclopropylamino)-6-phenoxyquinazolin-2-yl)-1H-pyrazole-4-carboxylic acid]	6.8	20%
CN(C)c1nc(-n2cc(C(=O)O)cn2)nc2cc(Oc3ccccc3)ccc12 [Example 77, 1-(4-(Dimethylamino)-7-phenoxyquinazolin-2-yl)-1H-pyrazole-4-carboxylic acid]	7.4	75%
O=C(O)c1cnn(-c2nc(N3CCCCC3)c3ccc(Oc4ccccc4)cc3n2)c1 [Example 79, 1-(7-Phenoxy-4-(piperidin-1-yl)quinazolin-2-yl)-1H-pyrazole-4-carboxylic acid]	7.0	38%
CCN(CC)c1nc(-n2cc(C(=O)O)cn2)nc2cc(Oc3ccccc3)ccc12 [Example 83, 1-(4-(Diethylamino)-7-phenoxyquinazolin-2-yl)-1H-pyrazole-4-carboxylic acid]	7.7	25%
O=C(O)c1cnn(-c2nc(N3CCOCC3)c3cc(OC4CCCCC4)c(F)cc3n2)c1 [Example 100, 1-(7-Fluoro-6-(cyclohexyloxy)-4-morpholinoquinazolin-2-yl)-1H-pyrazole-4-carboxylic acid]	6.6	18%
CN(C)c1nc(-n2cc(C(=O)O)cn2)nc2cc(F)c(OC3CCCCC3)cc12 [Example 101, 1-(7-fluoro-6-(cyclohexyloxy)-4-(dimethylamino)quinazolin-2-yl)-1H-pyrazole-4-carboxylic acid]	7.1	85%
CCN(CC)c1nc(-n2cc(C(=O)O)cn2)nc2cc(F)c(OC3CCCCC3)cc12 [Example 102, 1-(6-(Cyclohexyloxy)-4-(diethylamino)-7-fluoroquinazolin-2-yl)-1H-pyrazole-4-carboxylic acid]	7.5	37%
O=C(O)c1cnn(-c2nc(N3CCCC3)c3cc(OC4CCCCC4)c(F)cc3n2)c1 [Example 103, 1-(7-fluoro-6-(cyclohexyloxy)-4-(pyrrolidin-1-yl)quinazolin-2-yl)-1H-pyrazole-4-carboxylic acid]	7.3	31%
CCN(C)c1nc(-n2cc(C(=O)O)cn2)nc2cc(F)c(OC3CCCCC3)cc12 [Example 104, 1-(7-fluoro-6-(cyclohexyloxy)-4-(ethyl(methyl)amino)quinazolin-2-yl)-1H-pyrazole-4-carboxylic acid]	7.1	49%
O=C(O)c1cnn(-c2nc(NC3CC3)c3cc(OC4CCCCC4)c(F)cc3n2)c1 [Example 105, 1-(7-fluoro-6-(cyclohexyloxy)-4-(cyclopropylamino)quinazolin-2-yl)-1H-pyrazole-4-carboxylic acid]	7.2	29%
O=C(O)c1cnn(-c2nc(N3CCOCC3)c3cc(OC4CCCCC4)c(Cl)cc3n2)c1 [Example 136, 1-(7-chloro-6-(cyclohexyloxy)-4-morpholinoquinazolin-2-yl)-1H-pyrazole-4-carboxylic acid]	6.7	33%
CN(C)c1nc(-n2cc(C(=O)O)cn2)nc2cc(Cl)c(OC3CCCCC3)cc12 [Example 137, 1-(7-chloro-6-(cyclohexyloxy)-4-(dimethylamino)quinazolin-2-yl)-1H-pyrazole-4-carboxylic acid]	7.4	32%

From patent US10246442B2, “4-Aminoquinazolin compounds as prolyl hydroxylase inhibitors” (JANSSEN PHARMACEUTICA NV, priority 2011, dated 2019)
